Measured values as given in ChEMBL document CHEMBL3352684, “Discovery of MK-3697: a selective orexin 2 receptor antagonist (2-SORA) for the treatment of insomnia” (Bioorg Med Chem Lett, 2014).
Active and inactive are the calls of the source. No cut-off for these calls is given here.

Key:
Rattus norvegicus [1] = organism: Rattus norvegicus; assay: Ex vivo receptor occupancy at human OX2R expressed in transgenic rat at CSF concentration of 40 nM; assay type: functional
Orexin receptor type 2 = biological target: T1, Orexin receptor type 2 (Homo sapiens, UniProt O43614); assay: Displacement of (S)-N-(2-(1H-pyrrol-1-yl)phenyl)-1-(2-([3H]-1-methyl-1H-benzo[d]imidazol-2-ylthio)acetyl)pyrrolidine-2-carboxamide from human OX2R expressed in CHO cells after 3 hrs by topcount analysis; assay type: cell-based
T1 sequence (O43614 whole entry): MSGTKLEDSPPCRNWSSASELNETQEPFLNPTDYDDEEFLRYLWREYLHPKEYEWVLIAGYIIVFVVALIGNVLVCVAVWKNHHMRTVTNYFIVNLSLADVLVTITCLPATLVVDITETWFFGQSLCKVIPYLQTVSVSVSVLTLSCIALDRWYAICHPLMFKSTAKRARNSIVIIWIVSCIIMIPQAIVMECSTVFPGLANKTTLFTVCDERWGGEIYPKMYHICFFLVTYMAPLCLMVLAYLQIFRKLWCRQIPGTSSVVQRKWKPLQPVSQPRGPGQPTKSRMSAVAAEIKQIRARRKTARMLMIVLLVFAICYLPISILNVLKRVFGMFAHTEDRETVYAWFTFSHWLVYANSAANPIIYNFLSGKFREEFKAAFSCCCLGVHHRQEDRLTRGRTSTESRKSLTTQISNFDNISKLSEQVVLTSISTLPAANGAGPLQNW

[2] = Lipophilicity, log D of the compound; assay type: physicochemical; details: octanol/water
Cytochrome P450 2C9 = Cytochrome P450 2C9 (Homo sapiens, UniProt P11712); assay: Reversible inhibition of CYP2C9 (unknown origin); assay type: ADME
Cytochrome P450 2C9, sequence (P11712 whole entry): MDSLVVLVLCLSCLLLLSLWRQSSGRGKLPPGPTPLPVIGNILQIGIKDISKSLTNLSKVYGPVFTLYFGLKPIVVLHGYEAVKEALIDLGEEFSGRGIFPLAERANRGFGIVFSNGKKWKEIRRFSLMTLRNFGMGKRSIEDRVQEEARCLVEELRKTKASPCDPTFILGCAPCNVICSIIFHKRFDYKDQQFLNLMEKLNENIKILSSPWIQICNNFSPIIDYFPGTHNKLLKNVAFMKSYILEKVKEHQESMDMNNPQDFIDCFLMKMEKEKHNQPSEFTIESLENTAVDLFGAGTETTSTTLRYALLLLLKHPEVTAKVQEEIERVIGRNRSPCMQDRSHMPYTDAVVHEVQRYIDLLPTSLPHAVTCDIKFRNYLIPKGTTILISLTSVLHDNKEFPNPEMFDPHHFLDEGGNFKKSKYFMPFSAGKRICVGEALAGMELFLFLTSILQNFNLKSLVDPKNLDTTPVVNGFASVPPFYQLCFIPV

Cytochrome P450 2D6 = Cytochrome P450 2D6 (Homo sapiens, UniProt P10635); assay: Reversible inhibition of CYP2D6 (unknown origin); assay type: ADME
Cytochrome P450 2D6, sequence (P10635 whole entry): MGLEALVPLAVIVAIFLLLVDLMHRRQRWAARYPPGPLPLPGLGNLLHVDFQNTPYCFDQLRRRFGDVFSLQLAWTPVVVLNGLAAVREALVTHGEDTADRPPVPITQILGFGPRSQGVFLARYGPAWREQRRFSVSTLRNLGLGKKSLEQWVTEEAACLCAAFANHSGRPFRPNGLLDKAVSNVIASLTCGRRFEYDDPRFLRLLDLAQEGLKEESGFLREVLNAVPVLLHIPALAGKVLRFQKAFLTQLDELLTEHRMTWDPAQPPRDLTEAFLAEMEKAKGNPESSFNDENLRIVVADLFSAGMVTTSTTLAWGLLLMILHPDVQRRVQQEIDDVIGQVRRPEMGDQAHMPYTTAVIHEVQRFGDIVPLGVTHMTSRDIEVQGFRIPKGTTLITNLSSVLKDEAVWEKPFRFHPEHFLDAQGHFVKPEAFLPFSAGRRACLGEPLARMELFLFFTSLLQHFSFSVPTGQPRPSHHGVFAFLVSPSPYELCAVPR

[3] = biological target: T2, Nuclear receptor subfamily 1 group I member 2 (Homo sapiens, UniProt O75469); assay: Activation of PXR (unknown origin)
T2 sequence (O75469 whole entry): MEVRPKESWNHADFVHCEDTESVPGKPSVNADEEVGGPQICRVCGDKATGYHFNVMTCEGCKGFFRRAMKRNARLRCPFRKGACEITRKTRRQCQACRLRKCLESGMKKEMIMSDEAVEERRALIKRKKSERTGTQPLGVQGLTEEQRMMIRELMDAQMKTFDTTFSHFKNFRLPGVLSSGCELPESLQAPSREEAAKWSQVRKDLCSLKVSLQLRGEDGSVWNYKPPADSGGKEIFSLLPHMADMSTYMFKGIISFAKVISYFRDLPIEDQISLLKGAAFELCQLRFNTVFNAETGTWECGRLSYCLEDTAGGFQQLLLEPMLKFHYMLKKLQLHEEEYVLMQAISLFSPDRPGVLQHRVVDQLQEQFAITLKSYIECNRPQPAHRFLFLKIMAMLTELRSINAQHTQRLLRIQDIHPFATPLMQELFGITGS

[4] = Clearance in rat at 2 mg/kg, iv; assay type: ADME, organism-based; design: dose 2 mg/kg, route intravenous; details: in vivo
[5] = Volume of distribution at steady state in rat at 2 mg/kg, iv; assay type: ADME, organism-based; design: dose 2 mg/kg, route intravenous; details: in vivo, read-out: Vdss
[6] = Half life in rat at 2 mg/kg, iv; assay type: ADME, organism-based; design: dose 2 mg/kg, route intravenous; details: in vivo
[7] = Volume of distribution at steady state in dog at 1 mg/kg, iv; assay type: ADME, organism-based, Canis lupus familiaris; design: dose 1 mg/kg, route intravenous; details: in vivo, read-out: Vdss
[8] = Tmax in rat at 5 mg/kg, po; assay type: ADME, organism-based; design: dose 5 mg/kg, route oral; details: in vivo
[9] = AUC (0 to infinity) in dog at 3 mg/kg, po; assay type: ADME, organism-based, Canis lupus familiaris; design: time infinity, dose 3 mg/kg, route oral; details: plasma
[10] = Cmax in rat at dog at 3 mg/kg, po; assay type: ADME, organism-based, Canis lupus familiaris; design: dose 3 mg/kg, route oral; details: in vivo
[11] = Tmax in rat at dog at 3 mg/kg, po; assay type: ADME, organism-based, Canis lupus familiaris; design: dose 3 mg/kg, route oral; details: in vivo
[12] = Oral bioavailability in […] dog at 3 mg/kg; assay type: ADME, organism-based, Canis lupus familiaris; details: in vivo
Mus musculus [13] = assay: Increase in rapid eye movement sleep in mouse at 100 mg/kg, po after 2 hrs; assay type: functional, organism-based; design: dose 100 mg/kg
Rattus norvegicus [14] = assay: Reduction in active wake sleep in Sprague-Dawley rat at 15 mg/kg, po after 2 hrs; assay type: functional, organism-based; design: dose 15 mg/kg
Rattus norvegicus [15] = assay: Increase in slow wave sleep in Sprague-Dawley rat at 15 mg/kg, po after 2 hrs; assay type: functional, organism-based; design: dose 15 mg/kg
Mus musculus [16] = assay: Increase in slow wave sleep in OX2R-knockout mouse at 100 mg/kg, po after 2 hrs; assay type: functional, organism-based; design: dose 100 mg/kg
Mus musculus [17] = assay: Increase in rapid eye movement sleep in OX2R-knockout mouse at 100 mg/kg, po after 2 hrs; assay type: functional, organism-based; design: dose 100 mg/kg
Canis familiaris = assay: Reduction in active wake sleep in dog at 3 mg/kg, po after 2 hrs; assay type: functional, organism-based; design: dose 3 mg/kg; details: Canis lupus familiaris
[18] = biological target: T3, Orexin/Hypocretin receptor type 1 (Mus musculus) (UniProt P58307); assay: Antagonist activity at mouse OX1R by FLIPR assay
T3 sequence (whole entry): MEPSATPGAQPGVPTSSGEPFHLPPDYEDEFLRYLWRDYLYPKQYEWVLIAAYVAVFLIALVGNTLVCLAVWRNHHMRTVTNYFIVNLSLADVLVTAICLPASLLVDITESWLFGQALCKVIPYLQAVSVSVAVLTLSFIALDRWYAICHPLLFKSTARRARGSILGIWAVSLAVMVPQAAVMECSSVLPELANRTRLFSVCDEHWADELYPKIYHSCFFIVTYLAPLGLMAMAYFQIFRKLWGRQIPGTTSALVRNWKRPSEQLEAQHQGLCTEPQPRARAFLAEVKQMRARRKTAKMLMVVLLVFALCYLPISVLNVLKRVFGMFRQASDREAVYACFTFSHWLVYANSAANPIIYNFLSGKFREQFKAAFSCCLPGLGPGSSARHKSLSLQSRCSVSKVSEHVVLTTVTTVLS

[19] = Plasma protein binding in Sprague-Dawley rat; assay type: ADME, cell-free; details: read-out: PPB (converted)
[20] = biological target: T4, Orexin receptor type 2 (Rattus norvegicus) (UniProt P56719); assay: Antagonist activity at Sprague-Dawley rat OX2R by FLIPR assay
T4 sequence (whole entry): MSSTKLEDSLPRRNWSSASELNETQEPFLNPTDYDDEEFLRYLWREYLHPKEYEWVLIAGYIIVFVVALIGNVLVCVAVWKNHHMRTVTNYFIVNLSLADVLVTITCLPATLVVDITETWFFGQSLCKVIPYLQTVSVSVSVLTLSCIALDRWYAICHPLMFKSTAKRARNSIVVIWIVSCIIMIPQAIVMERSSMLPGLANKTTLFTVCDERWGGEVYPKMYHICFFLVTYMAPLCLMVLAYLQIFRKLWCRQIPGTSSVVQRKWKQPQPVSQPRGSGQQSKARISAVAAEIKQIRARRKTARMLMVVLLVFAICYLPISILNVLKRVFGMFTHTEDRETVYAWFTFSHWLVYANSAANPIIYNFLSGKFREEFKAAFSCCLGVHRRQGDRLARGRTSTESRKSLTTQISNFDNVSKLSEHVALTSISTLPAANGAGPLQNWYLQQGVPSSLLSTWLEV

[21] = Tmax in dog at 3 mg/kg, po; assay type: ADME, organism-based, Canis lupus familiaris; design: dose 3 mg/kg, route oral; details: in vivo
[22] = Drug uptake in dog CSF at 3 mg/kg, po; assay type: ADME, organism-based, Canis lupus familiaris, Cerebrospinal fluid; design: dose 3 mg/kg, route oral; details: in vivo, read-out: Drug uptake
Rattus norvegicus [23] = organism: Rattus norvegicus; assay: Ex vivo receptor occupancy at human OX2R expressed in transgenic rat at plasma concentration of 1.06 uM; assay type: functional

Ki (Orexin receptor type 2): 0.0011 µM
logD [2]: 1.9
IC50 (Cytochrome P450 2C9): > 50 µM
IC50 (Cytochrome P450 2D6): > 50 µM
EC50 [3]: > 30 µM
clearance [4]: 40.7 mL/min/kg
Vd [5]: 1.2 L/kg
half-life [6]: 24 min
Vd [7]: 0.7 L/kg
Tmax [8]: 18 min
AUC(0-inf) [9]: 7.5 µM·h
Cmax [10]: 2100 nM
Tmax [11]: 42 min
bioavailability [12]: 49%
INH [18]: 27.2 µM
fraction unbound [19]: 0.164
INH [20]: 31 nM
Tmax [21]: 60 min
concentration [22]: 460 nM
Compound: COc1ccc(CNC(=O)c2cc(-c3cncc(C)c3)ncc2-c2nccs2)nc1OC
Occ (Rattus norvegicus [1]): 90%
Activity (Mus musculus [13]): Active
Activity (Rattus norvegicus [14]): Active
Activity (Rattus norvegicus [15]): Active
Activity (Mus musculus [16]): inactive
Activity (Mus musculus [17]): inactive
Activity (Canis familiaris): Active
Occ (Rattus norvegicus [23]): 90%
